Reference: US12384792B2, “Solid forms of isoquinolinones, and process of making, composition comprising, and methods of using the same” (Twelve Therapeutics, Inc., priority 2015, dated 2025)
Values after ≈ are worked out from the molar mass of the structure shown. Where two headings read alike, the source gives them in different places. Blank lines part the entries; values can stand above or below the compound they belong to.

Legend:
post-irradiated tumors = conditions: cited from earlier work
[1] = Kinetic solubility after 30 min in water and in 0.1M HCl; format: physicochemical; conditions: thermodynamic from solid, free base, 30 min, read-out: 30 min Kinetic solubility (pH), free base
Source text: See tables below for the summarized results.

[2] = Solubility of Compound 1 in acetonitrile/water during controlled crystallization; format: physicochemical
Method: An appropriate amount of acetonitrile/water were added to bring the solution to 80/20 v/v acetonitrile/water at 20 L/kg of Compound 1. The slurry was agitated and heated to 75° C. until all the Compound 1 was dissolved. The clear solution was polished filtered with a Zapcap filter (0.45 μm). The solution was put back into the reactor and cool down to 65° C.
The mixture was held under agitation at 22° C. for 2 hrs after the end of water addition.
20 L/kg of 80/20 v/v acetonitrile/water was added to Compound 1 solid charged into a reactor. The slurry was agitated and heated to 75° C. until all Compound 1 was dissolved. The clear solution was polish filtered with a Zapcap filter (0.45 μm). The solution was put back into the reactor and cooled down to 65° C.

[3] = system: PI3 kinase (e.g., PI3K-delta); conditions: in vitro; cited from earlier work
[4] = system: PI3 kinase (e.g., PI3K-delta); conditions: smoking mice in vivo; cited from earlier work
[5] = system: non-small-cell lung cancer, melanoma, and renal-cell cancer; conditions: clinical trial with a total of 296 patients; cited from earlier work

Compound: c1cc(CN2CCCNCCNCCCNCC2)ccc1CN1CCCNCCNCCCNCC1 [AMD3100]
- tumor vasculogenesis and tumor regrowth (post-irradiated tumors): blocked

- solubility kinetic at 30 min ([1]; 0.1M HCl, pH 1.5, simulated gastric fluid, in 0.1M HCl, pH 1.5 and 1.3): 10 µg/mL (≈ 0.0189 mM)
- solubility kinetic at 30 min ([1]; water, pH 7.1, water, in water (footnote *), pH 7.1 and 6.8): 10 µg/mL (≈ 0.0189 mM)
- solubility ([2]; aqueous with cosolvent or surfactant or cyclodextrin, 40/60 v/v acetonitrile/water, 22° C.): ~3000 µg/mL (≈ 5.68 mM)
- solubility ([2]; organic solvent or mixture, 80/20 v/v acetonitrile/water, 22° C.): ~18000 µg/mL (≈ 34.1 mM)
- solubility ([2]; organic solvent or mixture, 80/20 v/v acetonitrile/water, 65° C.): ~50000 µg/mL (≈ 94.6 mM)
Compound: C[C@H](NC(=O)c1c(N)nn2cccnc12)c1cc2cccc(C#Cc3cnn(C)c3)c2c(=O)n1-c1ccccc1 [Compound 1, (S)-2-amino-N-(1-(8-((1-methyl-1H-pyrazol-4-yl)ethynyl)-1-oxo-2-phenyl-1,2-dihydroisoquinolin-3-yl)ethyl)pyrazolo[1,5-a]pyrimidine-3-carboxamide]

Compound: Cn1c(=O)c2[nH]cnc2n(C)c1=O [Theophylline, theophylline]
- histone deacetylase-2 and corticosteroid sensitivity [3]: increases
- histone deacetylase-2 and corticosteroid sensitivity [4]: increases

Compound: nivolumab: fully human IgG4 monoclonal antibody which specifically blocks PD1
- response in non-small-cell lung cancer, melanoma, and renal-cell cancer [5]: complete or partial responses
